# Experimental data taken from ChEMBL document CHEMBL5465560, “Selectivity Literature for EUbOPEN Chemogenomic Library” (2024).
# What was measured:
# [1] = molecular target: Transient receptor potential cation channel subfamily M member 6 (Homo sapiens) (UniProt Q9BX84); assay: Selectivity interaction (KinomeScan (DiscoverX)) EUB0000695a TRPM6; details: at 100 nM
# [2] = molecular target: T1, Serine/threonine-protein kinase DCLK1 (Homo sapiens) (UniProt O15075); assay: Selectivity interaction (KinomeScan (DiscoverX)) EUB0001079a DCLK1; details: at 1 µM
# T1 sequence (whole entry): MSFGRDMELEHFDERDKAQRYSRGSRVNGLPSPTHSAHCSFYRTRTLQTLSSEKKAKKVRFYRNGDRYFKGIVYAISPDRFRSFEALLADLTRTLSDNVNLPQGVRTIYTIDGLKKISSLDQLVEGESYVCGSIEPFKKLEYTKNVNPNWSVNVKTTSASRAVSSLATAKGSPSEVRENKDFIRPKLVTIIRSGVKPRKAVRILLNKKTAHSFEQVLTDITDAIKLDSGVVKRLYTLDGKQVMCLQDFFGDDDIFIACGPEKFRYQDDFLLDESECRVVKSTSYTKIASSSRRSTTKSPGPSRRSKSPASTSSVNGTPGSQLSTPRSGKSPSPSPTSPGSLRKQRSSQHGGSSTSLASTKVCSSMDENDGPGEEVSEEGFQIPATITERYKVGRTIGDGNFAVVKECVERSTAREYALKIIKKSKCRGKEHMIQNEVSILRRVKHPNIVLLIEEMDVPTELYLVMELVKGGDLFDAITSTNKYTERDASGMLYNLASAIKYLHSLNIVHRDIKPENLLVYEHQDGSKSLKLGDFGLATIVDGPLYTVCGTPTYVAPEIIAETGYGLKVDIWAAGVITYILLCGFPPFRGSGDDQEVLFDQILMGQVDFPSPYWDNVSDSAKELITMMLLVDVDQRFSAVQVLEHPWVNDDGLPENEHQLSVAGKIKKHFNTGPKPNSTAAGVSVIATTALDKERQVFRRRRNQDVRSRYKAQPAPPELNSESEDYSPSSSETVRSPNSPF
# [3] = molecular target: Homeodomain-interacting protein kinase 2 (Homo sapiens, UniProt Q9H2X6); assay: Selectivity interaction (Enzymatic assay (Eurofins)) EUB0001049a HIPK2
# Homeodomain-interacting protein kinase 2, sequence (Q9H2X6 whole entry, canonical isoform): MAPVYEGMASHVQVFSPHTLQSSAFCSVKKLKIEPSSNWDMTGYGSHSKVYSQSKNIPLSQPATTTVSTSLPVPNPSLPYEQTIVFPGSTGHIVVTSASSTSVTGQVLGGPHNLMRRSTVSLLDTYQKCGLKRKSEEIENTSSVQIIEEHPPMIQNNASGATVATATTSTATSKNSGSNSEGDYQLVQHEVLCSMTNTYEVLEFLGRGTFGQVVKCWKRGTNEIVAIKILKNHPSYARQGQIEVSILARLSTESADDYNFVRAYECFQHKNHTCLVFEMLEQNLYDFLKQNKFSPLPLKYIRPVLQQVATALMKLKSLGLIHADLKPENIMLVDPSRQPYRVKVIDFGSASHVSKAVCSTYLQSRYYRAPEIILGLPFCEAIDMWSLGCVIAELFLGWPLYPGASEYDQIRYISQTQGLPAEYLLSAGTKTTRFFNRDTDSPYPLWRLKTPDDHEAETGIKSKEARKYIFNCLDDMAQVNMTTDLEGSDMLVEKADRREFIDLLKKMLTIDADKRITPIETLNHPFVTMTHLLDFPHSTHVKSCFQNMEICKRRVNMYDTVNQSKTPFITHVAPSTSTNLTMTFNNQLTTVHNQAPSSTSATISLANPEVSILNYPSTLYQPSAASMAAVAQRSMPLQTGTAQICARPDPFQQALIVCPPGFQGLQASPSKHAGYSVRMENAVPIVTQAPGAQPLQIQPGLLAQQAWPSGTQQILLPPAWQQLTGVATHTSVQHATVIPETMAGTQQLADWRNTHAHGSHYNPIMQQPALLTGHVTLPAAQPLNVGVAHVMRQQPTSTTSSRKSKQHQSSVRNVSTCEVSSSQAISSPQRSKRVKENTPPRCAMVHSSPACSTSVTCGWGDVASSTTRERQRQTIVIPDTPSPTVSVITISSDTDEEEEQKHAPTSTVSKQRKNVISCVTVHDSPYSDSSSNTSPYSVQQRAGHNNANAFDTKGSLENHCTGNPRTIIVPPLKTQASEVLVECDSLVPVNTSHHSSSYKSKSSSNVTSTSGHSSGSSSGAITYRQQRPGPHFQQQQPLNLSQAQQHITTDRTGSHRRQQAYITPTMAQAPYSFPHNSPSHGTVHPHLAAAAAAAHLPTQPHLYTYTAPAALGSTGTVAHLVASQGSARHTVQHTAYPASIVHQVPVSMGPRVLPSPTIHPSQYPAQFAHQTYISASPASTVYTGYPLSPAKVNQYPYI
# [4] = molecular target: T2, Phosphatidylinositol 4,5-bisphosphate 3-kinase catalytic subunit delta isoform (Homo sapiens) (UniProt O00329); assay: Selectivity interaction (KinomeScan (DiscoverX)) EUB0001049a PIK3CD; details: at 1 µM
# T2 sequence (whole entry): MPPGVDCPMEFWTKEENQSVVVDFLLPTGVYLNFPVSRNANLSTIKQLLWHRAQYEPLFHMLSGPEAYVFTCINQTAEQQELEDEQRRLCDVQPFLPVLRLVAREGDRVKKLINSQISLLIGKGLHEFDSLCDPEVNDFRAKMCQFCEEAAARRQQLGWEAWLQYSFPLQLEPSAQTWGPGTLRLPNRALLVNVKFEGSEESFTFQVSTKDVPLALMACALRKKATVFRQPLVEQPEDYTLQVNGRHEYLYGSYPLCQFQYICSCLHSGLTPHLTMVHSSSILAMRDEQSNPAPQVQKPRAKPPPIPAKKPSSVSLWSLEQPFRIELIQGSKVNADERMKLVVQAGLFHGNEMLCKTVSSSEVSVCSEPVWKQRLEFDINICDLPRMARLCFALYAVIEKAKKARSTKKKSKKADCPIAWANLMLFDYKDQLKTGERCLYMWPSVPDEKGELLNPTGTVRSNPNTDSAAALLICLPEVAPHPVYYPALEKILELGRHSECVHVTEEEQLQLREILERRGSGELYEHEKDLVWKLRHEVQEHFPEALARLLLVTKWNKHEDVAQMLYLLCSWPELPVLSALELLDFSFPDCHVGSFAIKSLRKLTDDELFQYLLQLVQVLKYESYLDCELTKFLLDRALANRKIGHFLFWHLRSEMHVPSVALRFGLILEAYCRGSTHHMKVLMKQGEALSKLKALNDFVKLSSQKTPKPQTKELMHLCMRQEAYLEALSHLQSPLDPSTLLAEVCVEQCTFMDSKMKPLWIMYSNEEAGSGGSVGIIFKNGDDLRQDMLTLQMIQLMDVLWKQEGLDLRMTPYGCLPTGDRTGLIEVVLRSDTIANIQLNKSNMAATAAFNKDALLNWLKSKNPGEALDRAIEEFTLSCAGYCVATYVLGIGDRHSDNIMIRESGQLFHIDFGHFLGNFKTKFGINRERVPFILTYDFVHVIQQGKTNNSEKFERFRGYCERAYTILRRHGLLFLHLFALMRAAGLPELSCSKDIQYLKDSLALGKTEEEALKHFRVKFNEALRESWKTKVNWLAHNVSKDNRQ
# [5] = molecular target: Serine/threonine-protein kinase PAK 6 (Homo sapiens) (UniProt Q9NQU5); assay: Selectivity interaction (Upstate Kinase Profiler service (Millipore)) EUB0000056c PAK6; details: at 1 µM
# Serine/threonine-protein kinase PAK 6 (Homo sapiens), sequence (Q9NQU5 whole entry, looked up): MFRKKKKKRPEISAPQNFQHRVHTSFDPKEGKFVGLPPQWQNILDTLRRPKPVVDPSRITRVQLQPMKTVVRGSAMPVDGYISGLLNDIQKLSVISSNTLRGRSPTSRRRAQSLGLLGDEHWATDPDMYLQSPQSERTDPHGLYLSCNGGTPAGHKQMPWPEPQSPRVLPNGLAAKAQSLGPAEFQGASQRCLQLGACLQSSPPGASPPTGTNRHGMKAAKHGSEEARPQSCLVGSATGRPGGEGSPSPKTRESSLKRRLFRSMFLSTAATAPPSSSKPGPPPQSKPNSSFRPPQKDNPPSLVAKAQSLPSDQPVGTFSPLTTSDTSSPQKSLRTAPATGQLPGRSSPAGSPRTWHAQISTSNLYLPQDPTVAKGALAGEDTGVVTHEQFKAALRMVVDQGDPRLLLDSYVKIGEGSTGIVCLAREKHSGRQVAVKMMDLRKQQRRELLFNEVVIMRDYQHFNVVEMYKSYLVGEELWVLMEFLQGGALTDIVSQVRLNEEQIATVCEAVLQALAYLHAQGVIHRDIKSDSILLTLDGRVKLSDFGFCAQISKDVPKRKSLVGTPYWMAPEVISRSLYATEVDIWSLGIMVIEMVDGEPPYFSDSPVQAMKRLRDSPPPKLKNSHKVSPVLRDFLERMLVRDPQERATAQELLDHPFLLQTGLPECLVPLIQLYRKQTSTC
# [6] = molecular target: Sodium-dependent serotonin transporter (Homo sapiens, UniProt P31645); assay: Selectivity interaction (Serotonin transporter site assay, human recombinant ) EUB0000877a SLC6A4
# Sodium-dependent serotonin transporter, sequence (P31645 whole entry): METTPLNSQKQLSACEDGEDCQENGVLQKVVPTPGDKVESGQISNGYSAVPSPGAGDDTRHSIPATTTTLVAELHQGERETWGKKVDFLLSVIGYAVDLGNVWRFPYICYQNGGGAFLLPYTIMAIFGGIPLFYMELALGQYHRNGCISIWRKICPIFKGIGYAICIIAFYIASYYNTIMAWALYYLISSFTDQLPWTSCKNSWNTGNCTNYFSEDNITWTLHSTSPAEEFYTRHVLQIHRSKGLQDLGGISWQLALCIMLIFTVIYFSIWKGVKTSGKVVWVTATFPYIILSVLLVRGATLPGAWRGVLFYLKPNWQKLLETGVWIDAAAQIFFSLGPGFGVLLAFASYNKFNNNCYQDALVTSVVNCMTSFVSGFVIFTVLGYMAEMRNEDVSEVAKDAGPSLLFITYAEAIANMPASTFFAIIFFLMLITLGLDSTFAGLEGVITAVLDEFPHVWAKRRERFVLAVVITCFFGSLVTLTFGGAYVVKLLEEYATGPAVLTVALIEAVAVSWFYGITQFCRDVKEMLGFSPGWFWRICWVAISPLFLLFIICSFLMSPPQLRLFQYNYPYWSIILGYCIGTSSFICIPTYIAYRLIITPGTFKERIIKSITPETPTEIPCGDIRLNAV
# [7] = molecular target: Dual specificity mitogen-activated protein kinase kinase 1 (Homo sapiens, UniProt Q02750); assay: Selectivity interaction (ActivX KiNativ screen (ex vivo kinase selectivity in human PBMCs)) EUB0001619a MAP2K1; assay type: cell-based; details: PBMC, at 1 µM
# [8] = molecular target: Mitogen-activated protein kinase 8 (Homo sapiens, UniProt P45983); assay: Selectivity interaction (Enzymatic assay) EUB0001199aCl MAPK8
# Mitogen-activated protein kinase 8, sequence (P45983 whole entry): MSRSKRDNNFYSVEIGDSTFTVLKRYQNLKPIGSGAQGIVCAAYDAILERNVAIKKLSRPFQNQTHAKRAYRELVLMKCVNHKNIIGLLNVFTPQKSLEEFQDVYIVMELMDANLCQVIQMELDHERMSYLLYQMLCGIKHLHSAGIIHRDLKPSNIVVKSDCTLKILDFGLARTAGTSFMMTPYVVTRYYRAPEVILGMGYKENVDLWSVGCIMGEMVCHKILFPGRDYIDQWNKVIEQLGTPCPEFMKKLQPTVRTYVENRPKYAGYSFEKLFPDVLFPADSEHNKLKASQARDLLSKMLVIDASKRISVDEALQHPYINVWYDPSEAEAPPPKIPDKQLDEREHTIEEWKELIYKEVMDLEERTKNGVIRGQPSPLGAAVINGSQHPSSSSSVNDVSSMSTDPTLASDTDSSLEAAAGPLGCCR
# KCNE1 = KCNE1 (Homo sapiens, UniProt P15382); assay: Selectivity interaction (Panel of kinases, GPCRs, ion channels and transporters (enzymatic assay)) EUB0000266bCl KCNE1
# [9] = system: Epidermal growth factor receptor (Homo sapiens), P00533 [UNDEFINED MUTATION]; assay: Selectivity interaction (KinomeScan (DiscoverX)) EUB0000655a EGFR; details: at 10 µM
# Epidermal growth factor receptor (Homo sapiens), P00533 [UNDEFINED MUTATION], sequence (P00533 whole entry, looked up, change not shown): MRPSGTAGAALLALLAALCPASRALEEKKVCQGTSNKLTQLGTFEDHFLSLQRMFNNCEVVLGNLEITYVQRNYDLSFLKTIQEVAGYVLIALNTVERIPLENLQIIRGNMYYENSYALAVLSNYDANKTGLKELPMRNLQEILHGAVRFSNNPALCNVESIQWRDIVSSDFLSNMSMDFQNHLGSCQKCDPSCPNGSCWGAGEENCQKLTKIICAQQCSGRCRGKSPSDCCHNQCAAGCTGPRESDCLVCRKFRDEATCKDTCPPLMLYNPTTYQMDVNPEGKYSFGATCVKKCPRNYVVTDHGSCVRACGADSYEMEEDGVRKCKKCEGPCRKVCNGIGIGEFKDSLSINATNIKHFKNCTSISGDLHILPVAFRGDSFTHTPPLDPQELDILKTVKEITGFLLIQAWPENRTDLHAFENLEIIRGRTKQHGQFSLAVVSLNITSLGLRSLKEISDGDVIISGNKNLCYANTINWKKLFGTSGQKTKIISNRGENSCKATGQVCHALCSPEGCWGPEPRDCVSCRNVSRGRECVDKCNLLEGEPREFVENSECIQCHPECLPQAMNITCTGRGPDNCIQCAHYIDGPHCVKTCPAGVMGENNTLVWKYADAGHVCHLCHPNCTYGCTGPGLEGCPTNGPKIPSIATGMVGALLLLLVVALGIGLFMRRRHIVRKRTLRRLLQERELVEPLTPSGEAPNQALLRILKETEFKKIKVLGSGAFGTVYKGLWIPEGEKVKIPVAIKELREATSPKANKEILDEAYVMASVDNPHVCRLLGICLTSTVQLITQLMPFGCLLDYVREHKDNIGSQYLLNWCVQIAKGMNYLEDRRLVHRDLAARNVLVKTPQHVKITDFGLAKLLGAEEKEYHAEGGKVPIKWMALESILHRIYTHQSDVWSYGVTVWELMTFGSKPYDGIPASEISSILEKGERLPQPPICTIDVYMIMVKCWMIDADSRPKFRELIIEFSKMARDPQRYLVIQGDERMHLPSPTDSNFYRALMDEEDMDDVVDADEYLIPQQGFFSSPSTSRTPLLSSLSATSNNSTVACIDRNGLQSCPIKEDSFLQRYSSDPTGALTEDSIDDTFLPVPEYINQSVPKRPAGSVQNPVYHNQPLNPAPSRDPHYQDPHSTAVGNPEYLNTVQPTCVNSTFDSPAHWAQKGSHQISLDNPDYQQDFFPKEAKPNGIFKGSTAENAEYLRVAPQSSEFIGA
# [10] = molecular target: RAC-gamma serine/threonine-protein kinase (Homo sapiens, UniProt Q9Y243); assay: Selectivity interaction (KinomeScan (DiscoverX)) EUB0000092b AKT3; details: at 10 µM
# RAC-gamma serine/threonine-protein kinase, sequence (Q9Y243 whole entry): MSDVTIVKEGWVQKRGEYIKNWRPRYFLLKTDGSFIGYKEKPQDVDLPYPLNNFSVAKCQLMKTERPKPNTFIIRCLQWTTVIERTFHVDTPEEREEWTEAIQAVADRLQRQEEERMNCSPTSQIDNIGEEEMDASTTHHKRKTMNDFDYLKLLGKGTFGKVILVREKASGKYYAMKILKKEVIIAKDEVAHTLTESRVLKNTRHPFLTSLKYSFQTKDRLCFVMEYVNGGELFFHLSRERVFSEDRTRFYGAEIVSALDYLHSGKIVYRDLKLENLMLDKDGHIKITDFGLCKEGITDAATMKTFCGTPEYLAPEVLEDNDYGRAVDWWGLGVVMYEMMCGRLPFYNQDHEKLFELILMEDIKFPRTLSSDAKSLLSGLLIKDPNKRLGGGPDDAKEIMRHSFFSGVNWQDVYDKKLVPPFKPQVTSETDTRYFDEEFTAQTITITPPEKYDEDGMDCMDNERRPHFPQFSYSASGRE
structure (smiles),measurement,setting,value
Cc1cc(F)c(C(=O)Nc2cccc(-c3nncn3C(C)C)n2)cc1-n1cnc(C2CC2)c1,% of control,[1],100%
Nc1cnc(N2CCc3cc(S(=O)(=O)Nc4c(F)cc(Cl)cc4F)cc(N4CCCC4=O)c32)nc1 [TP-020n],% of control,[2],100%
COc1cc(Nc2nc(C)cc(-c3cnn4nc(OC)ccc34)n2)cc(C(F)(F)F)c1,IC50,[3],> 10 µM
same,% of control,[4],88%
Cc1ccc(-c2ccc3c(ccc4sc5c(c43)NC[C@@H](C)NC5=O)n2)cn1,% of inhibition,[5],4%
CCC(=O)N1CC[C@H](Nc2ncnc3c2CN(c2cnc(OC)c(C(F)(F)F)c2)CC3)C1 [LENIOLISIB],IC50,[6],> 30 µM
N#Cc1cccc(-c2c[nH]c3ncnc(N4CCOCC4)c23)c1,% of inhibition,[7],6%
CN1Cc2nccc(-c3cn(C)nc3-c3ccc(F)cc3)c2C1=O,IC50,[8],1020 nM
CCn1c(-c2nc3cc(C(=O)N4CCCC(N)C4)ccc3n2C)cc2ccccc21 (stereo unspecified),XC50,KCNE1,> 25.1 µM
CN(C)CCOc1ccc(-c2nc(-c3ccncc3)c(-c3ccc4c(c3)CC/C4=N\O)[nH]2)cc1,% of control,[9],67%
CCC(=O)N1CCN(c2ccc(-n3c(=O)ccc4cnc5ccc(-c6cnc7ccccc7c6)cc5c43)cc2C(F)(F)F)CC1,% of control,[10],77%
